≈ marks a conversion by molar mass, not a printed value. Where a name gives a salt, the structure may show the parent alone. Read-outs that look alike come from different tables or passages of the source. Bounds are passed on as bounds.

Format in all cases: cell-based
In assay [1] the test system is P. aeruginosa NB52023 (efflux deficient K1542, ΔmexX ΔmexB). As to the kind of experiment: microbe, parasite or virus in culture. The settings on record: Pseudomonas aeruginosa, 20 h, read-out: Antibacterial activity (MIC) NB52023.
The test system of assay [2] is S. aureus NB01006-AVR005 (gyrA S84L, grlA S80F, grlB E471K). As to the kind of experiment: microbe, parasite or virus in culture. The settings on record: Staphylococcus aureus, 20 h, read-out: Antibacterial activity (MIC) NB01006-AVR005.
The test system of assay [3] is S. aureus ATCC 29213 (NB01001). As to the kind of experiment: MIC, broth microdilution (CLSI). The settings on record: Staphylococcus aureus, ATCC29213; S. aureus ATCC 29213; 35° C., 20 hours; read-out: Antibacterial activity (MIC) NB01001. Background: In broth dilution the organism is exposed to a series of concentrations in liquid medium.
Assay [4] deals with E. coli ATCC 25922 (NB27001). The experiment in a line: MIC, broth microdilution (CLSI). The settings on record: Escherichia coli, ATCC25922; E. coli ATCC 25922; 35° C., 20 hours; read-out: Antibacterial activity (MIC) NB27001.
Assay [5] concerns E. coli NB27177 (efflux deficient CGSC 11430, ΔtolC732::kan). The experiment in a line: microbe, parasite or virus in culture. The following applies: Escherichia coli, 20 h, read-out: Antibacterial activity (MIC) NB27177.
The test system of assay [6] is P. aeruginosa NB52023-CDK0006 (gyrA T83I, parC S87L). The experiment in a line: microbe, parasite or virus in culture. The settings on record: Pseudomonas aeruginosa, 20 h, read-out: Antibacterial activity (MIC) NB52023-CDK0006.
Assay [7] deals with P. aeruginosa NB52019 (wild-type PAO1). The experiment in a line: MIC, broth microdilution (CLSI). The settings on record: Pseudomonas aeruginosa, read-out: Antibacterial activity (MIC) NB52019.
Where [8] appears, read: P. aeruginosa wild-type PAO1, 35° C., 20 hours.

As to `Cc1c(N2CC[C@@H]([C@H](C)N)C2)c(F)cc2c(OCCCC#N)cc(=O)n(C3CC3)c12` [Example 57, 4-((7-((R)-3-((S)-1-aminoethyl)pyrrolidin-1-yl)-1-cyclopropyl-6-fluoro-8-methyl-2-oxo-1,2-dihydroquinolin-4-yl)oxy)butanenitrile], the MIC in assay [1] is 16 µg/mL (≈ 38.8 µM); in assay [2], 0.25 µg/mL (≈ 0.606 µM); in assay [3], 0.25 µg/mL (≈ 0.606 µM); in assay [4], 32 µg/mL (≈ 77.6 µM); in assay [5] it was 0.25 µg/mL (≈ 0.606 µM); in assay [6], greater than 32 µg/mL. The MIC in assay [7] (PAO1, 20 h) was greater than 32 µg/mL.
In the case of `Cc1c(N2CC[C@@H]([C@H](C)N)C2)c(F)cc2c(N)cc(=O)n(C3CC3)c12` [Example 36, 4-amino-7-((R)-3-((S)-1-aminoethyl)pyrrolidin-1-yl)-1-cyclopropyl-6-fluoro-8-methylquinolin-2(1H)-one], the MIC in assay [1] is 16 µg/mL (≈ 46.5 µM); in assay [2], 1 µg/mL (≈ 2.9 µM); in assay [3], 2 µg/mL (≈ 5.81 µM); in assay [4] it was 16 µg/mL (≈ 46.5 µM); in assay [5], 1 µg/mL (≈ 2.9 µM); in assay [6], greater than 16 µg/mL. For the same compound, the MIC in assay [7] (PAO1, 20 h) is greater than 16 µg/mL.
For the compound `Cc1c(N2CC[C@@H]([C@H](C)N)C2)c(F)cc2c(CO)cc(=O)n(C3CC3)c12` [Example 47, 7-((R)-3-((S)-1-aminoethyl)pyrrolidin-1-yl)-1-cyclopropyl-6-fluoro-4-(hydroxymethyl)-8-methylquinolin-2(1H)-one], the MIC in assay [1] was found to be 4 µg/mL (≈ 11.1 µM); in assay [2] it was 0.25 µg/mL (≈ 0.696 µM); in assay [3], 0.25 µg/mL (≈ 0.696 µM); in assay [4], 16 µg/mL (≈ 44.5 µM); in assay [5], 0.25 µg/mL (≈ 0.696 µM); in assay [6], 8 µg/mL (≈ 22.3 µM). Also, the MIC in assay [7] (PAO1, 20 h) turned out to be 16 µg/mL (≈ 44.5 µM).
Consider `CNCc1cc(=O)n(C2CC2)c2c(C)c(N3CCC(CN)C3)c(F)cc12.O=C(O)C(F)(F)F` (stereo not shown) [Example 88, 7-(3-(aminomethyl)pyrrolidin-1-yl)-1-cyclopropyl-6-fluoro-8-methyl-4-((methylamino)methyl)quinolin-2(1H)-one TFA salt], for which the MIC in assay [1] is 2 µg/mL; in assay [2], 2 µg/mL; in assay [3] it was 1 µg/mL; in assay [4] it was 4 µg/mL; in assay [5] it was 0.25 µg/mL; in assay [6], 4 µg/mL. Moreover, the MIC in assay [7] (setting [8]) came out at 16 µg/mL.
Regarding `COc1cc(=O)n(C2CC2)c2c(C)c(N3CC[C@@H]([C@H](C)N)C3)ccc12` [Example 68, 7-((R)-3-((S)-1-aminoethyl)pyrrolidin-1-yl)-1-cyclopropyl-4-methoxy-8-methylquinolin-2(1H)-one], the MIC in assay [1] is greater than 32 µg/mL; in assay [2] it was 1 µg/mL (≈ 2.93 µM); in assay [3], 0.5 µg/mL (≈ 1.46 µM); in assay [4] it was 32 µg/mL (≈ 93.7 µM); in assay [5] it was 0.25 µg/mL (≈ 0.732 µM); in assay [6], greater than 32 µg/mL. Besides, the MIC in assay [7] (PAO1, 20 h) was greater than 32 µg/mL.
For the compound `CCOC(=O)/C=C/c1cc(=O)n(C2CC2)c2c(C)c(N3CC[C@@H]([C@H](C)N)C3)c(F)cc12` [Example 21, (E)-ethyl 3-(7-((R)-3-((S)-1-aminoethyl)pyrrolidin-1-yl)-1-cyclopropyl-6-fluoro-8-methyl-2-oxo-1,2-dihydroquinolin-4-yl)acrylate], the MIC in assay [1] came out at 32 µg/mL (≈ 74.9 µM); in assay [2], 0.125 µg/mL (≈ 0.292 µM); in assay [3], 0.125 µg/mL (≈ 0.292 µM); in assay [4], 16 µg/mL (≈ 37.4 µM); in assay [5], 0.125 µg/mL (≈ 0.292 µM); in assay [6] it was 32 µg/mL (≈ 74.9 µM). The MIC in assay [7] (PAO1, 20 h) is greater than 32 µg/mL.
Regarding `COc1cc(=O)n(C2CC2)c2c(C)c(-c3ccc(N)nc3)ccc12` [Example 69, 7-(6-aminopyridin-3-yl)-1-cyclopropyl-4-methoxy-8-methylquinolin-2(1H)-one], the MIC in assay [1] was greater than 32 µg/mL; in assay [2], 2 µg/mL (≈ 6.22 µM); in assay [3] it was 2 µg/mL (≈ 6.22 µM); in assay [4], 32 µg/mL (≈ 99.6 µM); in assay [5], 0.5 µg/mL (≈ 1.56 µM); in assay [6], greater than 32 µg/mL. In assay [7] (PAO1, 20 h), the MIC was greater than 32 µg/mL.
Regarding `COc1cc(=O)n(C2CC2)c2c(C)c(N3CC[C@@H]([C@H](C)N)C3)c(F)cc12` [Example 67, 7-((R)-3-((S)-1-aminoethyl)pyrrolidin-1-yl)-1-cyclopropyl-6-fluoro-4-methoxy-8-methylquinolin-2(1H)-one], the MIC was found to be 8 µg/mL (≈ 22.3 µM) in assay [1]; 0.06 µg/mL (≈ 0.167 µM) in assay [2]; 0.06 µg/mL (≈ 0.167 µM) in assay [3]; 8 µg/mL (≈ 22.3 µM) in assay [4]; 0.06 µg/mL (≈ 0.167 µM) in assay [5]; 16 µg/mL (≈ 44.5 µM) in assay [6]. Also, the MIC in assay [7] (PAO1, 20 h) amounted to 32 µg/mL (≈ 89 µM).
Take `Cc1c(N2CC[C@@H]([C@H](C)N)C2)c(F)cc2c(-c3noc(=O)[nH]3)cc(=O)n(C3CC3)c12` [Example 38, 3-(7-((R)-3-((S)-1-aminoethyl)pyrrolidin-1-yl)-1-cyclopropyl-6-fluoro-8-methyl-2-oxo-1,2-dihydroquinolin-4-yl)-1,2,4-oxadiazol-5(4H)-one]: the MIC in assay [1] was 32 µg/mL (≈ 77.4 µM); in assay [2], 4 µg/mL (≈ 9.67 µM); in assay [3], 4 µg/mL (≈ 9.67 µM); in assay [4] it was 32 µg/mL (≈ 77.4 µM); in assay [5], 2 µg/mL (≈ 4.84 µM); in assay [6] it was greater than 32 µg/mL. In addition, the MIC in assay [7] (PAO1, 20 h) was greater than 32 µg/mL.
`Cc1c(N2CCC(F)(CN)C2)c(F)cc2cc(CN)c(=O)n(C3CC3)c12` (stereo not shown) [Example 93, 3-(aminomethyl)-7-(3-(aminomethyl)-3-fluoropyrrolidin-1-yl)-1-cyclopropyl-6-fluoro-8-methylquinolin-2(1H)-one formic acid salt]: the MIC in assay [1] is 4 µg/mL; in assay [2], 16 µg/mL; in assay [3], 2 µg/mL; in assay [4] it was 8 µg/mL; in assay [5], 1 µg/mL; in assay [6] it was 8 µg/mL. The MIC in assay [7] (PAO1, 20 h) was found to be 8 µg/mL.
For the compound `CCc1cc(=O)n(C2CC2)c2c(C)c(N3CC[C@@H]([C@H](C)N)C3)c(F)cc12` [Example 24, 7-((R)-3-((S)-1-aminoethyl)pyrrolidin-1-yl)-1-cyclopropyl-4-ethyl-6-fluoro-8-methylquinolin-2(1H)-one], the MIC is greater than 32 µg/mL in assay [1]; 0.06 µg/mL (≈ 0.168 µM) in assay [2]; 0.06 µg/mL (≈ 0.168 µM) in assay [3]; 8 µg/mL (≈ 22.4 µM) in assay [4]; 0.06 µg/mL (≈ 0.168 µM) in assay [5]; greater than 32 µg/mL in assay [6]. Further, the MIC in assay [7] (PAO1, 20 h) is greater than 32 µg/mL.
`Cc1c(N2CC3CC3(N)C2)c(F)cc2c(CN)cc(=O)n(C3CC3)c12` (stereo not shown) [Example 81.23, 7-(1-amino-3-azabicyclo[3.1.0]hexan-3-yl)-4-(aminomethyl)-1-cyclopropyl-6-fluoro-8-methylquinolin-2(1H)-one]: the MIC in assay [1] amounted to 0.5 µg/mL (≈ 1.46 µM); in assay [2] it was 0.5 µg/mL (≈ 1.46 µM); in assay [3] it was 0.5 µg/mL (≈ 1.46 µM); in assay [4], 0.25 µg/mL (≈ 0.73 µM); in assay [5] it was 0.06 µg/mL (≈ 0.175 µM); in assay [6] it was 1 µg/mL (≈ 2.92 µM). Moreover, the MIC in assay [7] (PAO1, 20 h) amounted to 4 µg/mL (≈ 11.7 µM).
Take `Cl.N#Cc1c(N2CC[C@H](N)C2)c(F)cc2ccc(=O)n(C3CC3)c12` [Example 113, (S)-7-(3-aminopyrrolidin-1-yl)-1-cyclopropyl-6-fluoro-2-oxo-1,2-dihydroquinoline-8-carbonitrile HCl salt]: the MIC worked out at 2 µg/mL in assay [1]; 16 µg/mL in assay [2]; 8 µg/mL in assay [3]; 0.5 µg/mL in assay [4]; 0.125 µg/mL in assay [5]; 4 µg/mL in assay [6]. Further, in assay [7] (setting [8]), the MIC was 16 µg/mL.

The record behind these values is patent US10160726B2, “Quinolone derivatives as antibacterials” (priority 2014, dated 2018).
